This assay concerns the target T1, DLK (Homo sapiens, UniProt Q12852).
T1 construct: N-terminally GST-tagged DLK (catalytic domain amino acid 1-520) (Carna Bioscience); GST (N); purchased Carna Bioscience
T1 sequence (Q12852 1-520): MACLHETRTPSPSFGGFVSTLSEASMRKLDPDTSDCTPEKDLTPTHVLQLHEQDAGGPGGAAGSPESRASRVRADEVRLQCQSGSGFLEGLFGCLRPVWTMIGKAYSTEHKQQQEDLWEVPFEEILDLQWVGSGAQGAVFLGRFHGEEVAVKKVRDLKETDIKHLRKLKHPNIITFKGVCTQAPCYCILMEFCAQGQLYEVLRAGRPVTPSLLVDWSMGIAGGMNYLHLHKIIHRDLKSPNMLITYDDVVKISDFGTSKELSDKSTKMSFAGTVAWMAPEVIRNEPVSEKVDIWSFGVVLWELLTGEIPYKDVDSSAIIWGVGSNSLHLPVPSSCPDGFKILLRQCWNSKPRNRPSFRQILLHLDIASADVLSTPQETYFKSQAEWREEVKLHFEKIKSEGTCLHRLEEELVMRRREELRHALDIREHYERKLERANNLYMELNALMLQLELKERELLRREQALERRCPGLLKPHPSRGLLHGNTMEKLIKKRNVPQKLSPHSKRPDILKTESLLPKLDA
The experiment in a line: DLK TR-FRET assay. The class given is biochemical. Conditions: 5 nM GST-tagged DLK (catalytic domain amino acid 1-520), 40 nM HIS-tagged MKK4 K131M substrate, 30 μM ATP, 60 minutes. The procedure: DLK TR-FRET assay: DLK kinase reactions (20 μL) containing 5 nM N-terminally GST-tagged DLK (catalytic domain amino acid 1-520) (Carna Bioscience), 40 nM N-terminally HIS-tagged MKK4 K131M substrate, and 30 μM ATP in kinase reaction buffer (50 mM HEPES, pH 7.5, 0.01% Triton X-100, 0.01% Bovine γ-Globulins, 2 mM DTT, 10 mM MgCl2 and 1 mM EGTA), and testing compound 1:3 serial diluted starting at 20 uM were incubated at ambient temperature for 60 minutes in 384 well OptiPlate (Perkin Elmer). To quench kinase reactions and detect phosphorylated MKK4, 15 μL of TR-FRET antibody mixture containing 2 nM anti-phosphorylated MKK4 labeled with Europium cryptate (Cisbio) and 23 nM anti-HIS labeled with D2 (Cisbio) in detection buffer (25 mM Tris pH 7.5, 100 mM NaCl, 100 mM EDTA, 0.01% Tween-20, and 200 mM KF) was added to the reaction mixture. The detection mixture was incubated for 3 hours at ambient temperature and the TR-FRET was detected with an EnVision multilabel plate reader (Perkin-Elmer) using the LANCE/DELFIA Dual Enh label from Perkin-Elmer (excitation filter: UV2 (TRF) 320 and emission filters: APC 665 and Europium 615).

pKi: −log10 of the molar value.

Compound `C[C@@H]1CCCN1c1cc(C2(C#N)CCOCC2)cc(Nc2cc(C#N)ccn2)n1` [Example 74, 2-[4-(4-Cyano-tetrahydro-pyran-4-yl)-6-((R)-2-methyl-pyrrolidin-1-yl)-pyridin-2-ylamino]-isonicotinonitrile] showed a negative-log Ki (pKi) of 9.70.

`N#Cc1ccnc(Nc2cc(C3(C#N)CCOCC3)cc(N3CCC3)n2)c1` [Example 75, 2-[6-Azetidin-1-yl-4-(4-cyano-tetrahydro-pyran-4-yl)-pyridin-2-ylamino]-isonicotinonitrile] showed a pKi of 7.89.

The compound `FC(F)c1ccnc(Nc2cc(C3CCN(C4COC4)CC3)cc(Cl)n2)c1` [Example 76, (6-Chloro-1′-oxetan-3-yl-1′,2′,3′,4′,5′,6′-hexahydro-[4,4′]bipyridinyl-2-yl)-(4-difluoromethyl-pyridin-2-yl)-amine] had a pKi of 7.80.

The compound `N#Cc1ccnc(Nc2cc(C3(C#N)CCOCC3)cc(Cl)n2)c1` [Example 77, 2-[6-Chloro-4-(4-cyano-tetrahydro-pyran-4-yl)-pyridin-2-ylamino]-isonicotinonitrile] showed a negative logarithm of the Ki (pKi) of 6.72.

Compound `N#Cc1ccnc(Nc2cc(C3CCOCC3)cc(Cl)n2)c1` [Example 78, 2-[6-Chloro-4-(tetrahydro-pyran-4-yl)-pyridin-2-ylamino]-isonicotinonitrile] showed a negative-log Ki (pKi) of 8.51.

Turning to `N#Cc1ccnc(Nc2cc(C3CCN(C4COC4)CC3)cc(N3CCCC3=O)n2)c1` [Example 79, 2-[1′-Oxetan-3-yl-6-(2-oxo-pyrrolidin-1-yl)-1′,2′,3′,4′,5′,6′-hexahydro-[4,4′]bipyridinyl-2-ylamino]-isonicotinonitrile], the pKi is 7.46.

`Cc1cc(C2CCOCC2)cc(Nc2cc(C#N)ccn2)n1` [Example 80, 2-[6-Methyl-4-(tetrahydro-pyran-4-yl)-pyridin-2-ylamino]-isonicotinonitrile] gave a negative-log Ki (pKi) of 7.24.

With `N#Cc1ccnc(Nc2cc(C3CCOCC3)cc(N3CC4CC3C4)n2)c1` [Example 81, 2-[6-(2-Aza-bicyclo[2.1.1]hex-2-yl)-4-(tetrahydro-pyran-4-yl)-pyridin-2-ylamino]-isonicotinonitrile], the negative-log Ki (pKi) was 7.94.

On to `N#Cc1ccnc(Nc2cc(C3CCOCC3)cc(N3CC4(COC4)C3)n2)c1` [Example 82, 2-[6-(2-Oxa-6-aza-spiro[3.3]hept-6-yl)-4-(tetrahydro-pyran-4-yl)-pyridin-2-ylamino]-isonicotinonitrile], for which the negative logarithm of the Ki (pKi) is 7.00.

Turning to `N#Cc1ccnc(Nc2cc(C3CCOCC3)cc(N3CCC4CC43)n2)c1` (stereo not shown) [Example 83, 2-[6-(2-Aza-bicyclo[3.1.0]hex-2-yl)-4-(tetrahydro-pyran-4-yl)-pyridin-2-ylamino]-isonicotinonitrile], the pKi is 8.34.

`N#Cc1ccnc(Nc2cc(C3CCOCC3)cc(N3CC4CC4C3)n2)c1` (stereo not shown) [Example 84, 2-[6-(3-Aza-bicyclo[3.1.0]hex-3-yl)-4-(tetrahydro-pyran-4-yl)-pyridin-2-ylamino]-isonicotinonitrile]: the pKi was 8.80.

`N#Cc1ccnc(Nc2cc(C3CCOCC3)cc(N3CCC4(CCOC4)C3)n2)c1` (stereo not shown) [Example 85, 2-[6-(2-Oxa-7-aza-spiro[4.4]non-7-yl)-4-(tetrahydro-pyran-4-yl)-pyridin-2-ylamino]-isonicotinonitrile] gave a negative-log Ki (pKi) of 7.82.

Compound `N#Cc1ccnc(Nc2cc(C3CCOCC3)cc(N3CC(F)C3)n2)c1` [Example 86, 2-[6-(3-Fluoro-azetidin-1-yl)-4-(tetrahydro-pyran-4-yl)-pyridin-2-ylamino]-isonicotinonitrile] had a negative-log Ki (pKi) of 7.92.

Regarding `COC1CN(c2cc(C3CCOCC3)cc(Nc3cc(C#N)ccn3)n2)C1` [Example 87, 2-[6-(3-Methoxy-azetidin-1-yl)-4-(tetrahydro-pyran-4-yl)-pyridin-2-ylamino]-isonicotinonitrile], the negative logarithm of the Ki (pKi) is 7.29.

In the case of `COC1CCN(c2cc(C3CCN(C4COC4)CC3)cc(Nc3cc(C#N)ccn3)n2)C1` (stereo not shown) [Example 88, 2-[6-(3-Methoxy-pyrrolidin-1-yl)-1-oxetan-3-yl-1′,2′,3′,4′,5′,6′-hexahydro-[4,4′]bipyridinyl-2-ylamino]-isonicotinonitrile], the pKi is 8.55.

`N#Cc1ccnc(Nc2cc(C3CCN(C4COC4)CC3)cc(N3CC(F)(F)C3)n2)c1` [Example 89, 2-[6-(3,3-Difluoro-azetidin-1-yl)-1′-oxetan-3-yl-1′,2′,3′,4′,5′,6′-hexahydro-[4,4′]bipyridinyl-2-ylamino]-isonicotinonitrile] gave a pKi of 8.10.

The compound `N#Cc1ccnc(Nc2cc(C3CCN(C4COC4)CC3)cc(N3CC4CC3C4)n2)c1` [Example 90, 2-[6-(2-Aza-bicyclo[2.1.1]hex-2-yl)-1′-oxetan-3-yl-1′,2′,3′,4′,5′,6′-hexahydro-[4,4′]bipyridinyl-2-ylamino]-isonicotinonitrile] showed a pKi of 8.72.

On to `N#Cc1ccnc(Nc2cc(C3CCN(C4COC4)CC3)cc(N3CC(F)C3)n2)c1` [Example 91, 2-[6-(3-Fluoro-azetidin-1-yl)-1′-oxetan-3-yl-1′,2′,3′,4′,5′,6′-hexahydro-[4,4′]bipyridinyl-2-ylamino]-isonicotinonitrile], for which the pKi is 8.17.

Turning to `N#Cc1ccnc(Nc2cc(C3CCN(C4COC4)CC3)cc(N3CC4CC4C3)n2)c1` (stereo not shown) [Example 92, 2-[6-(3-Aza-bicyclo[3.1.0]hex-3-yl)-1′-oxetan-3-yl-1′,2′,3′,4′,5′,6′-hexahydro-[4,4′]bipyridinyl-2-ylamino]-isonicotinonitrile], the pKi was 9.15.

Take `N#Cc1ccnc(Nc2cc(C3CCN(C4COC4)CC3)cc(N3CC4(CCOC4)C3)n2)c1` [Example 93, 2-[6-(6-Oxa-2-aza-spiro[3.4]oct-2-yl)-1′-oxetan-3-yl-1′,2′,3′,4′,5′,6′-hexahydro-[4,4′]bipyridinyl-2-ylamino]-isonicotinonitrile]: the pKi is 7.70.

As for `N#Cc1ccnc(Nc2cc(C3CCN(C4COC4)CC3)cc(N3CC4(CCC4(F)F)C3)n2)c1` [Example 94, 2-[6-(5,5-Difluoro-2-aza-spiro[3.3]hept-2-yl)-1′-oxetan-3-yl-1′,2′,3′,4′,5′,6′-hexahydro-[4,4′]bipyridinyl-2-ylamino]-isonicotinonitrile], the negative logarithm of the Ki (pKi) is 8.39.

As to `N#Cc1ccnc(Nc2cc(C3CCN(C4COC4)CC3)cc(N3CCC4(CCOC4)C3)n2)c1` (stereo not shown) [Example 95, 2-[6-(2-Oxa-7-aza-spiro[4.4]non-7-yl)-1′-oxetan-3-yl-1′,2′,3′,4′,5′,6′-hexahydro-[4,4′]bipyridinyl-2-ylamino]-isonicotinonitrile], the pKi is 8.14.

`COC1CN(c2cc(C3CCN(C4COC4)CC3)cc(Nc3cc(C#N)ccn3)n2)C1` [Example 96, 2-[6-(3-Methoxy-azetidin-1-yl)-1′-oxetan-3-yl-1′,2′,3′,4′,5′,6′-hexahydro-[4,4′]bipyridinyl-2-ylamino]-isonicotinonitrile] showed a pKi of 7.74.

`N#Cc1ccnc(Nc2cc(C3CCN(C4COC4)CC3)cc(N3CC4CC(F)(F)C4C3)n2)c1` (stereo not shown) [Example 97, 2-[6-(6,6-Difluoro-3-aza-bicyclo[3.2.0]hept-3-yl)-1′-oxetan-3-yl-1′,2′,3′,4′,5′,6′-hexahydro-[4,4′]bipyridinyl-2-ylamino]-isonicotinonitrile] gave a pKi of 9.22.

For the compound `N#Cc1ccnc(Nc2cc(C3CCN(C4COC4)CC3)cc(N3CC4(COC4)C3)n2)c1` [Example 98, 2-[6-(2-Oxa-6-aza-spiro[3.3]hept-6-yl)-1′-oxetan-3-yl-1′,2′,3′,4′,5′,6′-hexahydro-[4,4′]bipyridinyl-2-ylamino]-isonicotinonitrile], the pKi was 7.37.

With `N#Cc1ccnc(Nc2cc(C3CCN(C4COC4)CC3)cc(N3CCC4CC43)n2)c1` (stereo not shown) [Example 99, 2-[6-(2-Aza-bicyclo[3.1.0]hex-2-yl)-1′-oxetan-3-yl-1′,2′,3′,4′,5′,6′-hexahydro-[4,4′]bipyridinyl-2-ylamino]-isonicotinonitrile], the negative logarithm of the Ki (pKi) is 9.05.

For `N#Cc1ccnc(Nc2cc(C3CCOCC3)cc(N3CC4CC(F)(F)C4C3)n2)c1` (stereo not shown) [Example 100, 2-[6-(6,6-Difluoro-3-aza-bicyclo[3.2.0]hept-3-yl)-4-(tetrahydro-pyran-4-yl)-pyridin-2-ylamino]-isonicotinonitrile], the pKi is 7.96.

In the case of `COC1CCN(c2cc(C3CCOCC3)cc(Nc3cc(C#N)ccn3)n2)C1` (stereo not shown) [Example 101, 2-[6-(3-Methoxy-pyrrolidin-1-yl)-4-(tetrahydro-pyran-4-yl)-pyridin-2-ylamino]-isonicotinonitrile], the pKi is 7.42.
